For data set [1] the following is noted: in vivo; cited from earlier work.
Data set [2] concerns Aβ-induced neurodegeneration. Particulars: cited from earlier work.
Another data set has as its target T1, human mGlu3 (Homo sapiens, UniProt Q14832).
T1 construct: expressed in transfected cells; host or cells: HEK-293
Nature of the data set: mGlu3 GIRK cell-based thallium flux assay. The settings on record: HEK-293 co-expressing human mGlu3 and GIRK; EC80 glutamate. As for the experimental part:
(§1) Human embryonic kidney (HEK-293) cell lines stably co-expressing human mGlu2 and G protein-coupled inwardly rectifying potassium (GIRK) channels, or human mGlu3 and GIRK, were used for in vitro evaluation of compound activity through thallium flux assays.
(§2) The day before the assay, cells from cell lines co-expressing human mGlu2 or mGlu3 and GIRK, as described above, were plated in black-walled, clear-bottomed, amine-coated 384-well plates in 20 μL of assay medium (DMEM containing 10% FBS, 1 M HEPES, 100 mM sodium pyruvate) at a density of 15,000 cells/well and stored at 37° C. in the presence of 5% CO2. On the day of the assay, medium was removed and replaced with assay buffer (Hanks balanced salt solution, 20 mM HEPES, 4.16 mM sodium bicarbonate, pH 7.2) containing 0.328 μM FluoZin-2 AM dye. The dye was initially made up as a 2.85 mM stock in DMSO and diluted 1:1 with 10% pluronic acid before adding to the buffer. Cells were then incubated for one hour at room temperature. After dye-loading, excess extracellular dye was removed by exchanging the dye solution with assay buffer resulting in 20 μL of buffer in each well. After a ten-minute rest period, cell plates were loaded into a Hamamatsu μCell kinetic imaging plate reader to monitor fluorescence using 470 nm excitation and 540 nm emission settings.
(§3) After collection of baseline fluorescence, 20 μL of compound solution prepared as a concentration response series in assay buffer was added. The concentration series was created from a 10 mM DMSO compound stock by performing a 1:3 serial dilution in DMSO followed by a 1:167 dilution of each DMSO solution in buffer. […] Multiple reference wells containing no compound received either no glutamate (for a baseline reference), EC80 glutamate, or ECmax glutamate (for normalization to maximum response). Signal was monitored an additional 2.5 minutes after the glutamate addition. Fluorescence was measured throughout the experiment at a frequency of 1 measurement per every 2 seconds before the glutamate addition and a frequency of 1 measurement per every 1 second after the glutamate addition. Each compound concentration series occurred one time in each plate, and replicates from two or three plates were used in each experimental run. Thallium solutions were handled and disposed of according to guidelines from the Vanderbilt University Chemical Safety department.
(§4) Data were normalized using a static ratio function (F/F0) by dividing every fluorescent measurement by the initial fluorescent value for the corresponding well. The increase in signal resulting from the glutamate/thallium addition of the second add was measured by determining the slope from 3 seconds to 13 seconds after the addition. The average of all baseline slopes (no compound, no glutamate) was determined and this value was subtracted from all other slope values. The average of all ECmax slopes was determined and this value was used to normalize the baseline-corrected slopes to a percent max value (% Emax). The % Emax values for each compound series were plotted versus the log of the concentration and fit to a 4-parameter logistical equation with no fixed parameters.
(§5) Potency is reported as the IC50 resulting from the curve fit.

The target of the next data set is T2, human mGlu2 (Homo sapiens, UniProt Q14416).
T2 construct: expressed in transfected cells; host or cells: HEK-293
Nature of the data set: mGlu2 GIRK cell-based thallium flux assay. Particulars: HEK-293 co-expressing human mGlu2 and GIRK; EC80 glutamate. As for the experimental part: as §1, §2, §3, §4, §5

In a further data set the test system is group II mGlu receptors. The settings on record: cited from earlier work.
In data set [3] the test system is central mGlu2 and mGlu3 receptors. The settings on record: in vivo; cited from earlier work.
Another data set relates to C57Bl6/J mice. The settings on record: cited from earlier work.
A further data set relates to Helpless (H) mice. The settings on record: cited from earlier work; for activity in the tail suspension test: Helpless (H) mice.
The subject of data set [4] is normal animals. Particulars: cited from earlier work.
The test system of data set [5] is normal animals. Particulars: cited from earlier work. The source holds these as a separate data set.
In the next data set the test system is mice. Particulars: treated mice; cited from earlier work.
The test system of data set [6] is social isolation-reared mice. Particulars: cited from earlier work.
For data set [7], the system named is olfactory bulbectomized rats. Particulars: repeated administration for 14 days; cited from earlier work.
For data set [8] the following is noted: treatment for 7 days; cited from earlier work.

Like-named read-outs stand apart in the source and are kept apart here.

T2 sequence (Q14416 19-872): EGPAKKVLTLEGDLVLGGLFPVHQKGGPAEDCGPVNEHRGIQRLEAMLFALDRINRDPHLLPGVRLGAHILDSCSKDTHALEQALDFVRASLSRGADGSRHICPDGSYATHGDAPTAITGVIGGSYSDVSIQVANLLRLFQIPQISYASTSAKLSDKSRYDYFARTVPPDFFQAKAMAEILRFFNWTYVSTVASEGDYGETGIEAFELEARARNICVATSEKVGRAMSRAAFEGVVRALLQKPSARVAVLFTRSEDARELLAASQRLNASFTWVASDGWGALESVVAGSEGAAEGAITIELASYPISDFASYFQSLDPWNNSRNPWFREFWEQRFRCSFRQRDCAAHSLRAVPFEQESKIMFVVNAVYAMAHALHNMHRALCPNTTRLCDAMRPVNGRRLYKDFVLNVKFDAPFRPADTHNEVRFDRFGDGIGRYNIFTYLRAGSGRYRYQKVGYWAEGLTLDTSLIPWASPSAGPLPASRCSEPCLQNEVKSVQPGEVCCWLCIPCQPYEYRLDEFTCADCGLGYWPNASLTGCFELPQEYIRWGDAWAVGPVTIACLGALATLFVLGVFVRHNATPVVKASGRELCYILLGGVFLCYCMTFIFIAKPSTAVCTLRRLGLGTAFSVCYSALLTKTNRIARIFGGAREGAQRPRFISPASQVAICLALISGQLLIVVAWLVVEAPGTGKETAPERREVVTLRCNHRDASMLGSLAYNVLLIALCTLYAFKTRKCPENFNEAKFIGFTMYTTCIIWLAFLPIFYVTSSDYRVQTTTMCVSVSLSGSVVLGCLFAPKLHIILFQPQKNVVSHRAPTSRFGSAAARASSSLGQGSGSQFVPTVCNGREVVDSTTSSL
T1 sequence (Q14832 23-879): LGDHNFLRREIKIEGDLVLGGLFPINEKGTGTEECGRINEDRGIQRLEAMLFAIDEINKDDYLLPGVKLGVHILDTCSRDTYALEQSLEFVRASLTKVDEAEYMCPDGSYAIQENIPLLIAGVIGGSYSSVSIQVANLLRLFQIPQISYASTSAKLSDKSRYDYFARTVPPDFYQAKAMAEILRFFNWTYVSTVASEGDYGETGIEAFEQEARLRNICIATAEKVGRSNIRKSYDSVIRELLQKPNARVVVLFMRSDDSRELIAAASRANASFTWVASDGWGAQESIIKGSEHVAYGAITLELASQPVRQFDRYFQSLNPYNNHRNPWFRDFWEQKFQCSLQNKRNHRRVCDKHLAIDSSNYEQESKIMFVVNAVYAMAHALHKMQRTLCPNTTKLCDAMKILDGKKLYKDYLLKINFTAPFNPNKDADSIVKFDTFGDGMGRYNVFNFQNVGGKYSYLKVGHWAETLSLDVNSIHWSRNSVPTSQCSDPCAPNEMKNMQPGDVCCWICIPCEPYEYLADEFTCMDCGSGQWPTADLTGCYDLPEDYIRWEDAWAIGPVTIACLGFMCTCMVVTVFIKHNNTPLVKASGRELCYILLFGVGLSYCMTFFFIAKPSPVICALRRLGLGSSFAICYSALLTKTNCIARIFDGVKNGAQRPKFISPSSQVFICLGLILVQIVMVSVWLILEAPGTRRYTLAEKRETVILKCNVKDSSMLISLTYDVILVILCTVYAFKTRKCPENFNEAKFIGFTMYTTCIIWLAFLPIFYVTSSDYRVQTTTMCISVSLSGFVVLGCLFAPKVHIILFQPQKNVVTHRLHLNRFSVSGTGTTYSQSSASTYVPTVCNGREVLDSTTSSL

Regarding `CN1C(=O)CN=C(c2ccccc2)c2cc(Cl)ccc21` [diazepam], the freezing behavior entry in [1] is listed as “significantly decreased”.

For `CCS(=O)(=O)N(Cc1cccnc1)c1cccc(-c2ccc(C#N)cc2)c1` [LY566332], the Aβ-induced neurodegeneration entry in [2] is “amplified”.

As to `Cc1nc(COc2cc3n[nH]c(=O)n3cc2-c2ccc(F)cc2)cs1` [Compound 3, 6-(4-fluorophenyl)-7-((2-methylthiazol-4-yl)methoxy)-[1,2,4]triazolo[4,3-a]pyridin-3(2H)-one], the “Human mGlu3 GIRK IC50” value at human mGlu3 is listed as “Inactive”. Besides, inhibition against human mGlu2 was half-maximal at 104 nM (IC50).

Regarding `COc1ccc(-c2cn3c(=O)[nH]nc3cc2OCc2nccn2C)c(F)c1` [Compound 9, 6-(2-fluoro-4-methoxyphenyl)-7-((1-methyl-1H-imidazol-2-yl)methoxy)-[1,2,4]triazolo[4,3-a]pyridin-3(2H)-one], the “Human mGlu3 GIRK IC50” value at human mGlu3 is “Inactive”. For the same compound, on human mGlu2, half-maximal inhibition (IC50) was put at 216 nM.

For the compound `Cn1ccc(COc2cc3n[nH]c(=O)n3cc2-c2ccc(F)cc2)n1` [Compound 1, 6-(4-fluorophenyl)-7-((1-methyl-1H-pyrazol-3-yl)methoxy)-[1,2,4]triazolo[4,3-a]pyridin-3(2H)-one], the “Human mGlu3 GIRK IC50” value at human mGlu3 is “Inactive”. Further, half-maximal inhibition against human mGlu2 (IC50) required 771 nM.

Turning to `CCCCCCCOC(=O)[C@@]1(F)[C@@H]2C[C@@H](OCc3ccc(Cl)c(Cl)c3)[C@@](N)(C(=O)O)[C@@H]21` [BCI-838], the “duration of inhibition of group II mGlu receptors by brain concentration of active metabolite BCI-632” value with group II mGlu receptors (once-daily oral dosing) was 22 h. Besides, in the data set on group II mGlu receptors (three months of treatment), the “Dutch APP transgene-associated learning and memory impairment” value is “reversed”; the anxiolytic effects result is given as “provided anxiolytic effects”. Moreover, the “levels of monomeric and oAβ peptides in the hippocampus and cortex” value with group II mGlu receptors (three months of treatment, two AD mouse models) is “decreased”. Moreover, the “hippocampal progenitor cell proliferation” value with group II mGlu receptors (wild-type and Alzheimer's diseased mice, 3 months) is listed as “stimulated”.

On to `COc1ccc(-c2cn3c(=O)[nH]nc3cc2OCc2cc(C)n(C)n2)c(F)c1` [Compound 10, 7-((1,5-dimethyl-1H-pyrazol-3-yl)methoxy)-6-(2-fluoro-4-methoxyphenyl)-[1,2,4]triazolo[4,3-a]pyridin-3(2H)-one], for which the “Human mGlu3 GIRK IC50” value on human mGlu3 was “Inactive”. In addition, the IC50 (as a rule, the concentration that gives 50% inhibition) at human mGlu2 worked out at 119 nM.

Consider `Cc1csc(COc2cc3n[nH]c(=O)n3cc2-c2ccc(F)cc2)n1` [Compound 6, 6-(4-fluorophenyl)-7-((4-methylthiazol-2-yl)methoxy)-[1,2,4]triazolo[4,3-a]pyridin-3(2H)-one], for which the “Human mGlu3 GIRK IC50” value on human mGlu3 is listed as “Inactive”. For the same compound, 169 nM corresponded to half-maximal inhibition against human mGlu2 (IC50).

`N[C@](CC1c2ccccc2Oc2ccccc21)(C(=O)O)[C@H]1C[C@@H]1C(=O)O` [LY341495]: in data set [3], the “hypolocomotor effect of mGlu2/3 agonist (LY379268)” value was “achieved the same result”. Further, in the data set with C57Bl6/J mice, the “immobility time in the FST” value is “dose-dependently reduced”. In addition, the “activity in the tail suspension test” value in the data set with Helpless (H) mice is on record as “active”. Moreover, the “antidepressant effect in helpless mice” value in the data set on Helpless (H) mice (acute administration) is given as “potent antidepressant effect”. Further, the “Antidepressant-like effects in rat FST” value with normal animals [4] was “Antidepressant-like effects”. For the same compound, the “amplification of Aβ-induced neurodegeneration by LY566332” value in data set [2] is listed as “prevented”. Besides, in the data set with normal animals [5], the “Antidepressant-like effects in mouse TST” value is recorded as “Antidepressant-like effects”. Besides, the marble-burying behavior result in the data set on mice is listed as “significantly reduce marble-burying behavior”.

Consider `Cc1cc(-c2cccc(C3=Nc4cc(C)c(C(F)(F)F)cc4NC(=O)C3)c2)cc(C)n1` [RO4491533], for which the “hypolocomotor effect of mGlu2/3 agonist (LY379268)” value in [3] is “reversed the hypolocomotor effect”. The “immobility time in the FST” value in the data set on C57Bl6/J mice is reported as “dose-dependently reduced”. Further, the “activity in the tail suspension test” value with Helpless (H) mice is “active”.

As for `COc1ccc(-c2cn3c(=O)[nH]nc3cc2OCc2ccn(C)n2)c(F)c1` [Compound 7, 6-(2-fluoro-4-methoxyphenyl)-7-((1-methyl-1H-pyrazol-3-yl)methoxy)-[1,2,4]triazolo[4,3-a]pyridin-3(2H)-one], on human mGlu3, the “Human mGlu3 GIRK IC50” value was “Inactive”. Also, the IC50 on human mGlu2 came to 89 nM.

Regarding `COc1ccc(-c2cn3c(=O)[nH]nc3cc2OCc2ccn(C)n2)cc1` [Compound 11, 6-(4-methoxyphenyl)-7-((1-methyl-1H-pyrazol-3-yl)methoxy)-[1,2,4]triazolo[4,3-a]pyridin-3(2H)-one], the “Human mGlu3 GIRK IC50” value at human mGlu3 is given as “Inactive”. On human mGlu2, this compound had a half-maximal inhibitory concentration (IC50) of 85.8 nM.

For `N[C@]1(C(=O)O)[C@H]2[C@@H](C[C@H]1OCc1ccc(Cl)c(Cl)c1)[C@]2(F)C(=O)O` [MGS0039], in [6], the “immobility in the FST” value is reported as “reversed the increased immobility”. Moreover, in data set [7], the “hyperactivity in the open field test” value was “attenuated the hyperactivity” and the “learning deficit in the passive avoidance test” value was “attenuated the learning deficit”. For the same compound, the “number of escape failures” value in [8] is reported as “significantly reduced”. For the same compound, the “Antidepressant-like effects in rat FST” value in the data set on normal animals [4] is “Antidepressant-like effects”. The “Antidepressant-like effects in mouse TST” value in the data set with normal animals [5] is “Antidepressant-like effects”. Moreover, in the data set on mice, the marble-burying behavior entry is “reduced marble-burying behavior in a significant and dose dependent manner”; the spontaneous locomotor activity entry is “no significant change”. Besides, in data set [1], the freezing behavior result is “significantly decreased”.

Consider `CNCCC(Oc1ccc(C(F)(F)F)cc1)c1ccccc1` (centres unmarked) [fluoxetine], for which, in the data set on Helpless (H) mice (chronic (21 days) treatment), the “antidepressant effect in helpless mice” value is “full antidepressant effect”.

Take `COc1ccc(-c2cn3c(=O)[nH]nc3cc2OCc2csc(C)n2)c(F)c1` [Compound 8, 6-(2-fluoro-4-methoxyphenyl)-7-((2-methylthiazol-4-yl)methoxy)-[1,2,4]triazolo[4,3-a]pyridin-3(2H)-one]: the “Human mGlu3 GIRK IC50” value at human mGlu3 is recorded as “Inactive”. The compound further gave a half-maximal inhibitory concentration (IC50) against human mGlu2 of 54.2 nM.

These data come from patent US20240208983A1, “1,2,4-TRIAZOLO[4,3-A]PYRIDINE DERIVATIVES AS NEGATIVE ALLOSTERIC MODULATORS OF METABOTROPIC GLUTAMATE RECEPTOR 2” (Vanderbilt University, priority 2021, published 2024).
